Reference: patent publication US20260015350A1, “AZAQUINAZOLINE PAN-KRAS INHIBITORS” (Mirati Therapeutics, Inc., priority 2022, published 2026)

Columns and labels:
[1] = target: T1, KRas^G12C (Homo sapiens, UniProt P01116, G12C); assay: KRas binding assay (TR-FRET tracer displacement), KRas G12C; details: TR-FRET tracer displacement, KRas G12C
T1 construct: Biotinylated KRas (corresponding to amino acids 1-169, produced at Accelegan Inc.); biotin (biotinylated); purchased Accelegan Inc

[2] = target: T2, KRas^Q61H (Homo sapiens, UniProt P01116, Q61H); assay: KRas binding assay (TR-FRET tracer displacement), KRas Q61H; details: TR-FRET tracer displacement, KRas Q61H
T2 construct: Biotinylated KRas (corresponding to amino acids 1-169, produced at Accelegan Inc.); biotin (biotinylated); purchased Accelegan Inc
T2 sequence (P01116 1-169 isoform P01116-2 Q61H): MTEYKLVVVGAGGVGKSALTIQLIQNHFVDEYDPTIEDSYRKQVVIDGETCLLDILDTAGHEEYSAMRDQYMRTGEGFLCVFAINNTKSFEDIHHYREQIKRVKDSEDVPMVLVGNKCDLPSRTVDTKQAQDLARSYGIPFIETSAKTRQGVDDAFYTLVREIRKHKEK

[3] = target: T3, KRas^WT (Homo sapiens, UniProt P01116); assay: KRas binding assay (TR-FRET tracer displacement), KRas WT; details: TR-FRET tracer displacement, KRas WT
T3 construct: Biotinylated KRas (corresponding to amino acids 1-169, produced at Accelegan Inc.); biotin (biotinylated); purchased Accelegan Inc
T3 sequence (P01116 1-169 isoform P01116-2): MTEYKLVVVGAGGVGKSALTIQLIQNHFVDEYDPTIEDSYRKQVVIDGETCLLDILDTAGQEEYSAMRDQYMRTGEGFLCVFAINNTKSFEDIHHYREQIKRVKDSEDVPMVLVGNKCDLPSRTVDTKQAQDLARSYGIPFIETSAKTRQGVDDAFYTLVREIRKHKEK

[4] = target: T4, KRas^G12V (Homo sapiens, UniProt P01116, G12V); assay: KRas binding assay (TR-FRET tracer displacement), KRas G12V
T4 construct: Biotinylated KRas (corresponding to amino acids 1-169, produced at Accelegan Inc.); biotin (biotinylated); purchased Accelegan Inc
T4 sequence (P01116 1-169 isoform P01116-2 G12V): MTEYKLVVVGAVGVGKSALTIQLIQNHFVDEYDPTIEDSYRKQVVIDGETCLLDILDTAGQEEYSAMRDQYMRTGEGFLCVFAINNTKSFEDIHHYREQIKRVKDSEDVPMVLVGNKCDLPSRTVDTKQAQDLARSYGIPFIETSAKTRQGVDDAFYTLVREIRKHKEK

[5] = target: T5, KRas^G12S (Homo sapiens, UniProt P01116, G12S); assay: KRas binding assay (TR-FRET tracer displacement), KRas G12S; details: TR-FRET tracer displacement, KRas G12S
T5 construct: Biotinylated KRas (corresponding to amino acids 1-169, produced at Accelegan Inc.); biotin (biotinylated); purchased Accelegan Inc
T5 sequence (P01116 1-169 isoform P01116-2 G12S): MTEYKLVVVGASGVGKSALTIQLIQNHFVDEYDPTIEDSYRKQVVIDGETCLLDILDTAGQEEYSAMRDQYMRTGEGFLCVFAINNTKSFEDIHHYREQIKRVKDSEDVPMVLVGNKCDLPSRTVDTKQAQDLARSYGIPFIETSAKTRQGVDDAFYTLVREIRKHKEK

[6] = system: KRas-mediated phosphorylation of ERK in AsPC-1 cells; assay: Inhibition of KRas-mediated phosphorylation of ERK (Cisbio HTRF pERK), AsPC-1 cells; type: cell-based; details: Homo sapiens, ASPC1, AsPC-1 cells; HTRF pERK
In short: (§1)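 A cell-based HTRF pERK assay: ten-point, threefold titrations beginning at 10 uM were applied for 3 hrs, with 0.2 uM Trametinib wells as the minimum control. Cells were lysed cold, and lysate was incubated with the antibody pair for 2 hrs before reading.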

[7] = target: T6, KRas^G13D (Homo sapiens, UniProt P01116, G13D); assay: KRas binding assay (TR-FRET tracer displacement), KRas G13D; details: TR-FRET tracer displacement, KRas G13D
T6 construct: Biotinylated KRas (corresponding to amino acids 1-169, produced at Accelegan Inc.); biotin (biotinylated); purchased Accelegan Inc
T6 sequence (P01116 1-169 isoform P01116-2 G13D): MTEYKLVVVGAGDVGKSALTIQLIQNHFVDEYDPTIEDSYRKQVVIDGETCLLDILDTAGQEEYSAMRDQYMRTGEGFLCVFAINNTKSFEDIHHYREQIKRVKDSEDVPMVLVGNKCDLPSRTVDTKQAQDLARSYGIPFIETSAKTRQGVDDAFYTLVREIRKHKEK

[8] = system: KRas-mediated phosphorylation of ERK in H727 cells; assay: Inhibition of KRas-mediated phosphorylation of ERK (Cisbio HTRF pERK), H727 cells; type: cell-based; details: Homo sapiens, NCI-H727, H727 cells; HTRF pERK
In short: as §1

[9] = target: T7, KRas^G12A (Homo sapiens, UniProt P01116, G12A); assay: KRas binding assay (TR-FRET tracer displacement), KRas G12A; details: TR-FRET tracer displacement, KRas G12A
T7 construct: Biotinylated KRas (corresponding to amino acids 1-169, produced at Accelegan Inc.); biotin (biotinylated); purchased Accelegan Inc
T7 sequence (P01116 1-169 isoform P01116-2 G12A): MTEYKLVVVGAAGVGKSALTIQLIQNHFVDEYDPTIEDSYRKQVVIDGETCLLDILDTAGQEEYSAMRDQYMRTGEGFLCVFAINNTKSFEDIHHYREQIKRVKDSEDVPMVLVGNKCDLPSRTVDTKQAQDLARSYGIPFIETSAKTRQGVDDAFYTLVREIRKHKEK

[10] = target: T8, KRas^G12D (Homo sapiens, UniProt P01116, G12D); assay: KRas binding assay (TR-FRET tracer displacement), KRas G12D
T8 construct: Biotinylated KRas (corresponding to amino acids 1-169, produced at Accelegan Inc.); biotin (biotinylated); purchased Accelegan Inc
T8 sequence (P01116 1-169 isoform P01116-2 G12D): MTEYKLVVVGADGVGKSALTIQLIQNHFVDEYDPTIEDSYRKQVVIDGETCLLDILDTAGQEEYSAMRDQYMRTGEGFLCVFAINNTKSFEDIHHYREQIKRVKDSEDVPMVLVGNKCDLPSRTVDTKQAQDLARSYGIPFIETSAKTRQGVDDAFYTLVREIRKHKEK

[11] = target: T9, KRas^G12R (Homo sapiens, UniProt P01116, G12R); assay: KRas binding assay (TR-FRET tracer displacement), KRas G12R
T9 construct: Biotinylated KRas (corresponding to amino acids 1-169, produced at Accelegan Inc.); biotin (biotinylated); purchased Accelegan Inc
T9 sequence (P01116 1-169 isoform P01116-2 G12R): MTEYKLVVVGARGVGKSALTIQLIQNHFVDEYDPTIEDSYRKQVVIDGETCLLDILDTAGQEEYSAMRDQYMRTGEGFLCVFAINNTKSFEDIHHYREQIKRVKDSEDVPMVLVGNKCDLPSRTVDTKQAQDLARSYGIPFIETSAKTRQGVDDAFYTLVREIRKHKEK

T1 sequence (P01116 1-169 isoform P01116-2 G12C): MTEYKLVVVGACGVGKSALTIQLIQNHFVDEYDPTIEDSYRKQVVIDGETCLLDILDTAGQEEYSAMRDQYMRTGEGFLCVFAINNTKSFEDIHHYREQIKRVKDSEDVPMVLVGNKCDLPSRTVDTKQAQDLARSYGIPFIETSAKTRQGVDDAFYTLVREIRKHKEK

Structure (SMILES) | IC50 [1] [nM] | IC50 [2] [nM] | IC50 [3] [nM] | IC50 [4] [nM] | IC50 [5] [nM] | IC50 [6] [nM] | IC50 [7] [nM] | IC50 [8] [nM] | IC50 [9] [nM] | IC50 [10] [nM] | IC50 [11] [nM]
Cc1cc2[nH]ncc2c(-c2ncc3c(N4CCCC5(CC(O)C5)C4)nc(OCC45CCCN4CCC5)nc3c2F)c1C (stereo not shown) [Example 727, 6-(7-(5,6-dimethyl-1H-indazol-4-yl)-8-fluoro-2-((hexahydro-1H-pyrrolizin-7a-yl)methoxy)pyrido[4,3-d]pyrimidin-4-yl)-6-azaspiro[3.5]nonan-2-ol] | 421 | 947 | 657 | 333 | 540 | > 10000 | 888 | > 10000 | 516 | 634 | 520
O=C1NCC2(CCCN(c3nc(OCC45CCCN4CCC5)nc4c(F)c(-c5cc(O)cc(Cl)c5C5CC5)ncc34)C2)N1 (stereo not shown) [Example 741, 7-(7-(3-chloro-2-cyclopropyl-5-hydroxyphenyl)-8-fluoro-2-((hexahydro-1H-pyrrolizin-7a-yl)methoxy)pyrido[4,3-d]pyrimidin-4-yl)-1,3,7-triazaspiro[4.5]decan-2-one] | < 2 | < 2 | < 2 | < 2 | < 2 | > 10000 | 3 | > 10000 | 2 | < 2 | < 2
Cc1cc2[nH]nnc2c(-c2ncc3c(N4CCCC5(CNS(=O)(=O)N5)C4)nc(OCC45CCCN4CCC5)nc3c2F)c1C (stereo not shown) [Example 855, 7-(7-(5,6-dimethyl-1H-benzo[d][1,2,3]triazol-4-yl)-8-fluoro-2-((tetrahydro-1H-pyrrolizin-7a(5H)-yl)methoxy)pyrido[4,3-d]pyrimidin-4-yl)-2-thia-1,3,7-triazaspiro[4.5]decane 2,2-dioxide] | 25 | 23 | 26 | 16 | 18 | > 10000 | 12 | > 10000 | 21 | 10 | 31
O=C1NCC2(CCCN(c3nc(OC[C@@]45CCCN4C[C@H](F)C5)nc4c(F)c(-c5c6ccccc6cc6[nH]ncc56)ncc34)C2)N1 (stereo partly drawn) [Example 760, 7-(7-(1H-benzo[f]indazol-4-yl)-8-fluoro-2-(((2R,7aS)-2-fluorohexahydro-1H-pyrrolizin-7a-yl)methoxy)pyrido[4,3-d]pyrimidin-4-yl)-1,3,7-triazaspiro[4.5]decan-2-one] | 73 | 66 | 88 | 67 | 76 | > 10000 | 72 | > 10000 | 91 | 76 | 170
Oc1cc(-c2ncc3c(N4C[C@@H]5C[C@H](C4)[C@H](O)C5)nc(OC[C@@]45CCCN4C[C@H](F)C5)nc3c2F)c2ccccc2c1Cl [Example 764, (1R,5R,6R)-3-(7-(4-chloro-3-hydroxynaphthalen-1-yl)-8-fluoro-2-(((2R,7aS)-2-fluorohexahydro-1H-pyrrolizin-7a-yl)methoxy)pyrido[4,3-d]pyrimidin-4-yl)-3-azabicyclo[3.2.1]octan-6-ol] | 2390 | 3930 | 3090 | 1660 | 1690 | > 10000 | 2410 | > 10000 | 2410 | 5530 | 3120
O=C1NC(=O)[C@]2(CCCN(c3nc(OCC45CCCN4CCC5)nc4c(F)c(-c5c(C6CC6)c(Cl)cc6[nH]ncc56)ncc34)C2)N1 [Example 779, (5R)-7-(7-(6-chloro-5-cyclopropyl-1H-indazol-4-yl)-8-fluoro-2-((hexahydro-1H-pyrrolizin-7a-yl)methoxy)pyrido[4,3-d]pyrimidin-4-yl)-1,3,7-triazaspiro[4.5]decane-2,4-dione] | < 2 | < 2 | < 2 | < 2 | < 2 | > 10000 | < 2 | 9390 | < 2 | 2 | 2
Cc1c(Cl)cc2[nH]ncc2c1-c1ncc2c(N3CCC[C@]4(C3)NC(=O)NC4=O)nc(OCC34CCCN3CCC4)nc2c1F [Example 766, (5R)-7-(7-(6-chloro-5-methyl-1H-indazol-4-yl)-8-fluoro-2-((hexahydro-1H-pyrrolizin-7a-yl)methoxy)pyrido[4,3-d]pyrimidin-4-yl)-1,3,7-triazaspiro[4.5]decane-2,4-dione] | 927 | 954 | 980 | 988 | 824 | > 10000 | 1210 | > 10000 | 1160 | 2200 | 1880
Cc1cc2[nH]ncc2c(-c2ncc3c(N4CC5CC(O)C(C5)C4)nc(OCC45CCCN4CCC5)nc3c2F)c1C (stereo not shown) [Example 725, 3-(7-(5,6-dimethyl-1H-indazol-4-yl)-8-fluoro-2-((tetrahydro-1H-pyrrolizin-7a(5H)-yl)methoxy)pyrido[4,3-d]pyrimidin-4-yl)-3-azabicyclo[3.2.1]octan-6-ol] | 812 | 1210 | 965 | 410 | 494 | > 10000 | 1120 | > 10000 | 763 | 1610 | 441
O=C1NC(=O)C2(CCCN(c3nc(OCC45CCCN4CCC5)nc4c(F)c(-c5cc(O)cc(Cl)c5C5CC5)ncc34)C2)N1 (stereo not shown) [Example 739, 7-(7-(3-chloro-2-cyclopropyl-5-hydroxyphenyl)-8-fluoro-2-((hexahydro-1H-pyrrolizin-7a-yl)methoxy)pyrido[4,3-d]pyrimidin-4-yl)-1,3,7-triazaspiro[4.5]decane-2,4-dione] | < 2 | < 2 | < 2 | < 2 | < 2 | > 10000 | < 2 | > 10000 | 2 | 3 | < 2
O=C1NC(=O)C2(CCCN(c3nc(OC[C@@]45CCCN4C[C@H](F)C5)nc4c(F)c(-c5c6ccccc6cc6[nH]ncc56)ncc34)C2)N1 (stereo partly drawn) [Example 759, 7-(7-(1H-benzo[f]indazol-4-yl)-8-fluoro-2-(((2R,7aS)-2-fluorohexahydro-1H-pyrrolizin-7a-yl)methoxy)pyrido[4,3-d]pyrimidin-4-yl)-1,3,7-triazaspiro[4.5]decane-2,4-dione] | 7 | 5 | 8 | 4 | 7 | > 10000 | 7 | > 10000 | 8 | 8 | 6
Cc1cc2[nH]ncc2c(-c2ncc3c(N4CCCn5nc(C(=O)N(C)C)cc5C4)nc(OCC45CCCN4CCC5)nc3c2F)c1C [Example 730, 5-(7-(5,6-dimethyl-1H-indazol-4-yl)-8-fluoro-2-((hexahydro-1H-pyrrolizin-7a-yl)methoxy)pyrido[4,3-d]pyrimidin-4-yl)-N,N-dimethyl-5,6,7,8-tetrahydro-4H-pyrazolo[1,5-a][1,4]diazepine-2-carboxamide] | 131 | 444 | 343 | 75 | 113 | > 10000 | 513 | > 10000 | 251 | 35 | 203
